Assay results reported in ChEMBL document CHEMBL1141782, “Antineoplastic agents. 553. The Texas grasshopper Brachystola magna” (2005).
≈ marks a conversion by molar mass, not a printed value.

Columns and labels:
Type in all cases: functional
[1] = system: P388; assay: Cytotoxicity against mouse P388 cells; conditions: read-out: ED50 (the source's name)
[2] = system: SF-268; assay: Cytotoxicity against human SF268 cells after 48 hrs by SRB assay; conditions: SF-268, 48 h, read-out: ED50 (the source's name)
[3] = system: NCI-H460; assay: Cytotoxicity against human NCI-H460 cells after 48 hrs by SRB assay; conditions: NCI-H460, 48 h, read-out: ED50 (the source's name)
[4] = system: DU-145; assay: Cytotoxicity against human DU145 cells after 48 hrs by SRB assay; conditions: DU-145, 48 h, read-out: ED50 (the source's name)
[5] = system: KM-20L2; assay: Cytotoxicity against human KM20L2 cells after 48 hrs by SRB assay; conditions: KM-20L2, 48 h, read-out: ED50 (the source's name)
[6] = system: BXPC-3; assay: Cytotoxicity against human BxPC3 cells after 48 hrs by SRB assay; conditions: BXPC-3, 48 h, read-out: ED50 (the source's name)
[7] = system: MCF7; assay: Cytotoxicity against human MCF7 cells after 48 hrs by SRB assay; conditions: MCF7, 48 h, read-out: ED50 (the source's name)

Structure (SMILES) | EC50 [1] [µg/mL] | EC50 [2] [µg/mL] | EC50 [3] [µg/mL] | EC50 [4] [µg/mL] | EC50 [5] [µg/mL] | EC50 [6] [µg/mL] | EC50 [7] [µg/mL]
O=C1N[C@@H]2C(=C[C@H](O)[C@@H](O)[C@H]2O)c2cc3c(c(O)c21)OCO3 [NARCICLASINE] | 0.018 (≈ 0.0586 µM) | 0.018 (≈ 0.0586 µM) | 0.014 (≈ 0.0456 µM) | 0.012 (≈ 0.0391 µM) | 0.023 (≈ 0.0749 µM) | 0.024 (≈ 0.0781 µM) | 0.014 (≈ 0.0456 µM)
O=C1N[C@H]2[C@H](O)[C@H](O)[C@@H](O)[C@H](O)[C@@H]2c2cc3c(c(O)c21)OCO3 [PANCRATISTATIN] | 0.048 (≈ 0.148 µM) | 0.032 (≈ 0.0984 µM) | 0.029 (≈ 0.0892 µM) | 0.037 (≈ 0.114 µM) | 0.048 (≈ 0.148 µM) | 0.043 (≈ 0.132 µM) | 0.035 (≈ 0.108 µM)
[O-]c1cc2c3c(c1)c1cc4c(cc1c[n+]3CC2)OCO4 [UNGEREMINE] | 1.2 (≈ 4.52 µM) | 0.057 (≈ 0.215 µM) | 0.65 (≈ 2.45 µM) | 0.029 (≈ 0.109 µM) | 0.5 (≈ 1.88 µM) | 0.87 (≈ 3.28 µM) | 0.48 (≈ 1.81 µM)
